Data reported in patent US20020028807A1, “Non-nucleoside reverse transcriptase inhibitors” (priority 2000, published 2002).

Columns and labels:
HIV-1 RT K103N/P225H = biological target: T1, HIV-1 RT K103N/P225H (Human immunodeficiency virus type 1 group M subtype B, UniProt P03366, K702N/P824H); assay: Reverse transcriptase (RT) assay, K103N/P225H mutant; type: biochemical
T1 construct: an HIV RT clone pKRT2 containing only the RT p66 gene regulated by the lac operon/trc promoter; made in house; host or cells: E. coli JM109, vector pKK233-2
Excerpt: (§1) Among the enzymes for which Human Immunodeficiency Virus (HIV-1) encodes is a reverse transcriptase (1), so-named because it transcribes a DNA copy from an RNA template. This activity can be quantitatively measured in a cell-free enzyme assay and is based upon the observation that reverse transcriptase is able to use a synthetic template poly r(C) primed with a biotinylated oligo d(G) to transcribe a radio-labelled DNA strand utilising 3H-dGTP as a substrate. The assay described below utilises the wild-type enzyme (which is the predominant form of the enzyme observed in patients infected with HIV-1) and can also be used with mutant RT enzymes (for example, Y181C, prepared by site-directed mutagenesis in which the tyrosine residue at codon 181 has been replaced by a cysteine residue) in analogous assay conditions. This assay allows compounds to be evaluated for their effectiveness at inhibiting the mutant enzymes.
(§2) Some HIV-1 IIIB clone BH10 RT mutants were provided by Dr. C.-K. Shih (Boehringer Ingelheim Pharmaceutials Inc., U.S.A.) in the vector pKK233-2 (Pharmacia). Briefly an HIV RT clone pKRT2 containing only the RT p66 gene regulated by the lac operon/trc promoter was obtained from Dr. W. Summers (Yale University) (2). A variety of specific amino acid substitutions were introduced into the wild-type RT gene by site-directed mutagenesis. RT clones were subcloned into the pKK233-2 bacterial expression vector. Clones provided included wild-type, Val106Ala, Tyr181Cys, Tyr188Cys, Tyr188Leu, Gly190Ala and Pro236Leu. Others were made in-house by site-directed mutagenesis of the pKK233-2 RT clones including Lys103Asn, Lys103Asn/Tyr181Cys, Lys103Asn/Leu100Ile, Lys103Asn/Pro225His, and Lys103Asn/Val108Ile.
(§3) Purification of recombinant reverse transcriptase was performed using a combination of methods previously described (3). A single colony from a fresh plate of transformed JM109 cells was used to initiate growth of a pre-culture grown o/n at 37° C. Two liters of growth medium were inoculated with this pre-culture. At OD600˜1.5 (5-6 h at 37° C.), RT gene expression was induced with IPTG (1 mM final), and the fermentation was continued for a few more hours at 37° C. After centrifugation, supernatants were discarded while cell pellets were pooled and stored at −80° C. until purification. Cells were thawed at 4° C. overnight and suspended in lysis buffer (MES 50 mM pH 6, EDTA 1 mM, 10% v/v glyerol, 0.02% w/v OBG, 0.02% w/v sodium azide). Lysozyme was added and the mixture was incubated on ice for 40 minutes. After homogenization using a bounce in presence of lysozyme and sonication, the cells were centrifuged for 30 minutes. Supernatant (S1) was saved and stored at 4° C. The centrifuged pellet was resuspended in extraction buffer (MES 50 mM pH 6, KPO4 50 mM pH 6, KCl 100 mM, 10% v/v glycerol, 0.02% w/v OBG, 0.02% w/v sodium axide) and stirred for 30 minutes at 4° C. This second mixture was centrifuged again and the supernatant (S2) was saved. The above procedure was repeated 2 more times saving supernatants S3 and S4 and one last extraction was performed overnight (S5). Polymin P (0.005% final) was added to the combined supernatants to remove nucleic acids. This solution was stirred for 75 minutes at 4° C. and centrifuged for 1 h. The supernatant (SS1) was precipitated on ice with 20% w/v ammonium sulfate and stirred for 1 h at 4° C. The mixture was then centrifuged and the resulting supernatant (SS2) was precipitated with additional 40% w/v ammonium sulfate (60% total), stirred for 1 h and centrifuged again. The final pellet (P1) was stored overnight at 4° C. before undergoing purification the following day. All steps of the purification were performed at 4° C. unless otherwise stated.
(§4) Pellet (P1) was resuspended into MES 50 mM pH 6, KPO4 10 mM pH 6, KCl 100 mM, 10% v/v glycerol, 0.02% w/v OBG, 0.02% w/v sodium azide. The suspension was dialysis against the same buffer overnight using 12-14 kD MWCO dialysis tubing. […]

HIV-1 RT Y188L = biological target: T2, HIV-1 RT Y188L (Human immunodeficiency virus type 1 group M subtype B, UniProt P03366, Y787L); assay: Reverse transcriptase (RT) assay, Y188L mutant; type: biochemical
T2 construct: an HIV RT clone pKRT2 containing only the RT p66 gene regulated by the lac operon/trc promoter; made in house; host or cells: E. coli JM109, vector pKK233-2
Excerpt: as §1, §2, §3, §4

HIV-1 RT G190A = biological target: T3, HIV-1 RT G190A (Human immunodeficiency virus type 1 group M subtype B, UniProt P03366, G789A); assay: Reverse transcriptase (RT) assay, G190A mutant; type: biochemical
T3 construct: an HIV RT clone pKRT2 containing only the RT p66 gene regulated by the lac operon/trc promoter; made in house; host or cells: E. coli JM109, vector pKK233-2
Excerpt: as §1, §2, §3, §4

HIV-1 RT K103N = biological target: T4, HIV-1 RT K103N (Human immunodeficiency virus type 1 group M subtype B, UniProt P03366, K702N); assay: Reverse transcriptase (RT) assay, K103N mutant; type: biochemical
T4 construct: an HIV RT clone pKRT2 containing only the RT p66 gene regulated by the lac operon/trc promoter; made in house; host or cells: E. coli JM109, vector pKK233-2
Excerpt: as §1, §2, §3, §4

HIV-1 RT K103N/L100I = biological target: T5, HIV-1 RT K103N/L100I (Human immunodeficiency virus type 1 group M subtype B, UniProt P03366, K702N/L699I); assay: Reverse transcriptase (RT) assay, K103N/L100I mutant; type: biochemical
T5 construct: an HIV RT clone pKRT2 containing only the RT p66 gene regulated by the lac operon/trc promoter; made in house; host or cells: E. coli JM109, vector pKK233-2
Excerpt: as §1, §2, §3, §4

HIV-1 RT Y188C = biological target: T6, HIV-1 RT Y188C (Human immunodeficiency virus type 1 group M subtype B, UniProt P03366, Y787C); assay: Reverse transcriptase (RT) assay, Y188C mutant; type: biochemical
T6 construct: an HIV RT clone pKRT2 containing only the RT p66 gene regulated by the lac operon/trc promoter; made in house; host or cells: E. coli JM109, vector pKK233-2
Excerpt: as §1, §2, §3, §4

HIV-1 RT K103N/Y181C = biological target: T7, HIV-1 RT K103N/Y181C (Human immunodeficiency virus type 1 group M subtype B, UniProt P03366, K702N/Y780C); assay: Reverse transcriptase (RT) assay, K103N/Y181C mutant; type: biochemical
T7 construct: an HIV RT clone pKRT2 containing only the RT p66 gene regulated by the lac operon/trc promoter; made in house; host or cells: E. coli JM109, vector pKK233-2
Excerpt: as §1, §2, §3, §4

HIV-1 RT V106A = biological target: T8, HIV-1 RT V106A (Human immunodeficiency virus type 1 group M subtype B, UniProt P03366, V705A); assay: Reverse transcriptase (RT) assay, V106A mutant; type: biochemical
T8 construct: an HIV RT clone pKRT2 containing only the RT p66 gene regulated by the lac operon/trc promoter; made in house; host or cells: E. coli JM109, vector pKK233-2
Excerpt: as §1, §2, §3, §4

[1] = tested on: HIV coding for wild-type reverse transcriptase (WT RT); assay: ELISA (p24) assay of HIV replication in C8166 cell culture, wild-type RT virus; type: cell-based, HIV-1; details: Human immunodeficiency virus 1, C8166, 72 h, read-out: EC50 WT RT
Experimental: Compounds of the invention were tested for their ability to inhibit HIV replication in cell culture in a 96-well plate assay. Complete RPMI 1640, consisting of RPMI 1640+10% fetal bovine serum, 10 μg/ml gentamycin and 10 μM β-mercaptoethanol was used for dilution of the compound as well as cell growth medium. The T lymphocyte cell line C8166 was infected at a multiplicity of infection of 0.001 with viruses coding for wild-type and mutant reverse transcriptase. Cells were then incubated for three days in the presence of serial dilutions of the compounds of the invention. The supernatant was pooled from eight replica wells and the concentration of extracellular p24 was determined using a commercially available HIV-1 p24 antigen assay kit (Beckman-Coulter®). The level of inhibition (% inhibition) was calculated with the following equation: [formula]

HIV-1 RT Y181C = biological target: T9, HIV-1 RT Y181C (Human immunodeficiency virus type 1 group M subtype B, UniProt P03366, Y780C); assay: Reverse transcriptase (RT) assay, Y181C mutant; type: biochemical
T9 construct: an HIV RT clone pKRT2 containing only the RT p66 gene regulated by the lac operon/trc promoter; made in house; host or cells: E. coli JM109, vector pKK233-2
Excerpt: as §1, §2, §3, §4

HIV-1 RT P23L = biological target: T10, HIV-1 RT P23L (Human immunodeficiency virus type 1 group M subtype B, UniProt P03366, P835L); assay: Reverse transcriptase (RT) assay, P23L mutant; type: biochemical
T10 construct: an HIV RT clone pKRT2 containing only the RT p66 gene regulated by the lac operon/trc promoter; made in house; host or cells: E. coli JM109, vector pKK233-2
Excerpt: as §1, §2
Purification of recombinant reverse transcriptase was performed using a combination of methods previously described (3). A single colony from a fresh plate of transformed JM109 cells was used to initiate growth of a pre-culture grown o/n at 37° C. Two liters of growth medium were inoculated with this pre-culture. At OD600˜1.5 (5-6 h at 37° C.), RT gene expression was induced with IPTG (1 mM final), and the fermentation was continued for a few more hours at 37° C. After centrifugation, supernatants were discarded while cell pellets were pooled and stored at −80° C. until purification. Cells were thawed at 4° C. overnight and suspended in lysis buffer (MES 50 mM pH 6, EDTA 1 mM, 10% v/v glyerol, 0.02% w/v OBG, 0.02% w/v sodium azide). Lysozyme was added and the mixture was incubated on ice for 40 minutes. After homogenization using a bounce in presence of lysozyme and sonication, the cells were centrifuged for 30 minutes. Supernatant (S1) was saved and stored at 4° C. […]

HIV-1 RT K103N/V108I = biological target: T11, HIV-1 RT K103N/V108I (Human immunodeficiency virus type 1 group M subtype B, UniProt P03366, K702N/V707I); assay: Reverse transcriptase (RT) assay, K103N/V108I mutant; type: biochemical
T11 construct: an HIV RT clone pKRT2 containing only the RT p66 gene regulated by the lac operon/trc promoter; made in house; host or cells: E. coli JM109, vector pKK233-2
Excerpt: as §1, §2, §3, §4

HIV-1 RT wild-type (WT) = biological target: T12, HIV-1 RT wild-type (WT) (Human immunodeficiency virus type 1 group M subtype B, UniProt P03366); assay: Reverse transcriptase (RT) assay, wild-type enzyme; type: biochemical
T12 construct: an HIV RT clone pKRT2 containing only the RT p66 gene regulated by the lac operon/trc promoter; made in house; host or cells: E. coli JM109, vector pKK233-2
Excerpt: as §1, §2, §3, §4

CCN1c2ncc(CCOc3ccnc4ccccc34)cc2C(=O)N(C)c2ccc(Cl)nc21 [compound 2, 2-Chloro-5,11-dihydro-11-ethyl-5-methyl-8-{2-(4-quinolinyloxy)ethyl}-6H-dipyrido[3,2-b:2′,3′-e][1,4]diazepin-6-one]
IC50 (HIV-1 RT K103N/P225H): 27 nM | IC50 (HIV-1 RT Y188L): 258 nM | IC50 (HIV-1 RT G190A): 14.5 nM | IC50 (HIV-1 RT K103N): 28.5 nM | IC50 (HIV-1 RT K103N/L100I): 46 nM | IC50 (HIV-1 RT Y188C): 7.1 nM | IC50 (HIV-1 RT K103N/Y181C): 24.5 nM | IC50 (HIV-1 RT V106A): 148 nM | EC50 [1]: 2.2 nM | IC50 (HIV-1 RT Y181C): 25 nM | IC50 (HIV-1 RT P23L): 50.5 nM | IC50 (HIV-1 RT K103N/V108I): 31 nM | IC50 (HIV-1 RT wild-type (WT)): 5.5 nM
